The assay relates to His-tagged proteins. Description: surface plasmon resonance, immobilized chelator, protein loss during wash. Format: binding. The settings on record: immobilized for surface plasmon resonance measurements. The text has this: The affinity of the soluble chelator of the present invention for His-tagged proteins is much higher, compared to the NTA analoga. […] So, a stable, non-reversible protein binding via affinity bonds between metal and poly-His is feasible.
Background: SPR reads the build-up and loss of mass on a sensor chip optically.

In the case of `O=C(O)CN(CC(=O)O)CC(=O)O` [NTA, nitrilotriacetic acid], the “protein loss from the chip” value was “protein leaching during wash”.

Source of the values: patent publication US20240308953A1, “SOLUBLE CHELATOR FOR TARGETING RECOMBINANT PROTEINS” (CUBE BIOTECH GMBH, priority 2021, published 2024).
